According to article PMC7827809, “Responses of the Pheromone-Binding Protein of the Silk Moth Bombyx mori on a Graphene Biosensor Match Binding Constants in Solution” (Sensors (Basel, Switzerland), 2021):
Entries after “also recorded” stand apart in the source; their conditions may differ. Read-outs that look alike come from different tables or passages of the source.

Experiments:
[1] = target: T1, BmorPBP1 (Bombyx mori pheromone-binding protein PBP1) (Bombyx mori, UniProt P34174); assay: Fluorescence binding assay in solution (1-NPN titration and competitive displacement); details: for binding in solution (displacement of 1-NPN), in words: pH 7.4, protein and probe 2 μM
T1 construct: polyhistidine (his-tag, from pET15b) (N); made in house; host or cells: Escherichia coli
T1 sequence (P34174 23-164): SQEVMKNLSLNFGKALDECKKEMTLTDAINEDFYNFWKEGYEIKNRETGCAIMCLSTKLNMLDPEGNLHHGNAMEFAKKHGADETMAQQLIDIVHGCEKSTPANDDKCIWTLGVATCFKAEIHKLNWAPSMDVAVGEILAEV
Method: Dissociation constants were measured in solution along with the widely adopted fluorescence binding assay. Spectra were recorded on a PerkinElmer FL 6500 spectrofluorometer at room temperature in a right-angle configuration, with a 1-cm light path quartz cuvette and 5-nm slits for both excitation and emission.
First, the binding of BmorPBP1 to the fluorescent probe N-phenyl-1-naphthylamine (1-NPN) […] of 1-NPN in methanol to final concentrations of 2–16 μM. Excitation wavelength was 337 nm and intensity was recorded at the maximum of the emission peak, 408 nm. The affinities of other ligands were evaluated in competitive binding assays by titrating a solution of the protein and 1-NPN, both at the concentration of 2 μM, with aliquots of 1-mM methanol solutions of each chemical to final concentrations of 2–16 μM. The affinity to 1-NPN was calculated using Prism software. Dissociation constants of competing ligands were evaluated from the corresponding [IC]50 values (the concentration of each ligand halving the initial value of fluorescence), using the equation: Kd = [IC]50/1 + [1-NPN]/KNPN, where [1-NPN] is the concentration of free 1-NPN and KNPN the dissociation constant of the complex Protein/1-NPN.

[2] = target: T2, BmorPBP1 immobilized on reduced graphene oxide field-effect transistor (Bombyx mori, UniProt P34174); assay: BmorPBP1-functionalized rGO-FET biosensor (titration and kinetic runs, Langmuir model); format: binding
T2 construct: polyhistidine (his-tag, from pET15b) (N); made in house; host or cells: Escherichia coli
T2 sequence (P34174 23-164): T1 sequence (P34174 23-164)
Method: Reduced graphene oxide field-effect transistors (rGO-FET) were fabricated as previously described with a modified channel width of 30 µm. Electrical properties of the FET devices were tested along with the procedure. For the detection of different odorants, the rGO-based biosensors were functionalized with BmorPBP1. Briefly, for the attachment of the protein to the sensing area, the graphene surface was chemically modified with a bifunctional linker: a 10-μL droplet of a 10-μM 6-(4-(pyren-3-yl) butanamido)-2-(bis(carboxymethyl) amino) hexanoic acid solution was applied overnight to the rGO channel area, rinsed, incubated for 30 min with a 40-mM NiCl2 solution (pH 5.5, adjusted with KOH), rinsed, then incubated with 20 μL of a 10-μM protein solution, followed by a final rinse.
The evaluation of BmorPBP1 binding affinities to various odorants was performed under the following standardized conditions: electrical measurements were taken using a Keithley 4200 semiconductor characterization system. An Ag/AgCl reference electrode (Flex ref, World Precision Instruments) was used to operate the FET device in liquid gate configuration with a constant gate bias (Vg) of −0.6 V and a constant source-drain bias (VDS) of 0.05 V. A flow rate of the odorant solutions in the flow cell was set at 300 µL/min in order to minimize mass transfer limitations of the analytes to the sensor surface. […] Subsequently, the biosensor was titrated with different odorant concentrations (1 μM–4 mM) and the change in source–drain current (ΔIDS) was monitored in real time. Here, the lowest odorant concentration was injected first, and the odorant was allowed to interact with the surface immobilized BmorPBP1 to reach equilibrium, as indicated by a constant source–drain current. This process was repeated with odorant solutions of higher concentrations, until the surface was fully saturated with the target analyte, as indicated by a constant source–drain current (IDS). Surface titration experiments were terminated by a final washing step using pure buffer in order to dissociate the formed PBP1-odorant complex, resulting in almost complete restoration of the initial baseline current. […] For this reason, the drain current response curves were normalized by subtraction to the baseline current. Kinetic parameters, as well as the dissociation constant, Kd, of the above described titration experiments were analyzed using the Langmuir model.
With the electronic transducer directly coupled to a flow cell, one can perform titrations as well as kinetic measurements by online changing of the analyte solution (pure buffer, different analytes at different concentrations) flowing through the cell, while recording the sensor response, i.e., a change in the source–drain current, ΔIDS = IDS − IDSBaseline, in real time.
Earlier studies have given evidence that the underlying molecular mechanism of the recognition and binding of odorant analytes from solution to the surface-immobilized protein, BmorPBP1 in this case, can be well described by the Langmuir adsorption model: the sensor has a fixed number of binding sites on its surface, whose occupancy is measured by Θ, the coverage, ranging from 0 to 1. […] The Langmuir model describes this relation between the coverage, Θ, and the bulk analyte concentration, c0 , by Equation (1):(1) Θ(c0)=ΔIDS(c0)/ΔIDS(c∞)=c0/Kd/(1+c0/Kd)
Alternatively, with the flow cell attached, one can measure the kinetics of the sensor response, ΔIDS, after changing the concentration in the bulk to another value. For an increase of the bulk concentration this can be described in the Langmuir model by Equation (2):(2) Θ(t)=c0/Kd/(1+c0/Kd)·(1−e^−(konc0+koff)t)
Measuring this association of kinetics at different bulk concentrations then allows for the determination of the rate constants, kon and koff. […]

[3] = target: T1, BmorPBP1 (Bombyx mori pheromone-binding protein PBP1); details: at concentrations of 7 μM ref 31; cited from earlier work
[4] = immobilized protein, pH 8.0, Langmuir isotherm fit, read-out: Sensor Data Kd, Titration
[5] = immobilized protein, pH 8.0, kinetic runs, averaged results, read-out: Sensor Data Kd, Kinetics
[6] = competitive displacement of 1-NPN, protein and probe 2 μM, 50 mM Tris-Cl pH 7.4, read-out: Solution Data Kd
[7] = Sensor Data Kd, Kinetics, immobilized protein, pH 8.0, kinetic runs, averaged results

Compound `c1ccc(Nc2cccc3ccccc23)cc1` [1-NPN, N-phenyl-1-naphthylamine] has a Kd [1] of 0.75 µM.

In the case of `COc1nccnc1CC(C)C` [2-Isobutyl-3-methoxypyrazine, 2-isobutyl-3-methoxypyrazine], the Kd [2, 4] is reported as 2800 µM, the Kd [2, 5] is reported as 1300 µM and the “sensor response (ΔIDS), in words” value ([2]; physiological pH / pH 8) is reported as “very weak responses”. For the same compound, the Kd [1, 6] was over 100 µM and the “binding in solution (displacement of 1-NPN), in words” value [1] was “poor binding”.

For `CCC/C=C\C=C\CCCCCCCCC=O` [Bombykal, bombykal], the “displacement of the fluorescence probe 1-NPN, in words” value [3] is given as “efficiently and similarly displace”, the Kd [2, 5] is given as 7.4 µM and the Kd [1, 6] is given as 1.1 µM. The “binding in solution (displacement of 1-NPN), in words” value [1] was “strongest ligand”.

In the case of `CCC/C=C\C=C\CCCCCCCCCO` [Bombykol, bombykol], the “displacement of the fluorescence probe 1-NPN, in words” value [3] is listed as “efficiently and similarly displace”, the Kd ([2]; immobilized protein, pH 4.0, read-out: Sensor Data Kd, Kinetics) is listed as over 1000 µM and the Kd [2, 4] is listed as 9.8 µM. The Kd [2, 5] was 8.2 µM, the “sensor response (ΔIDS) at pH 4, in words” value ([2]; pH 4) was “failed to bind; also recorded: barely detectable” and the Kd ([2]; pH 8, single global analysis run of Figure 2A(I)/2C, read-out: kinetically-determined dissociation constant Kd (koff/kon)) was 4.7 µM. The Kd ([1]; competitive displacement of 1-NPN, pH 4.0, read-out: Solution Data Kd) was over 100 µM, the Kd [1, 6] was 0.94 µM and the “binding in solution at pH 4, in words” value ([1]; pH 4) was “completely abolished; also recorded: failed to bind”. The “binding in solution (displacement of 1-NPN), in words” value [1] was “strongest ligand”.

For `C=CCc1ccc(O)c(OC)c1` [Eugenol, eugenol], the Kd [2, 7] was 8.1 µM, the Kd ([2]; Sensor Data Kd, Titration, immobilized protein, pH 8.0, Langmuir isotherm fit) was 7.6 µM and the “sensor response (ΔIDS), in words” value ([2]; physiological pH / pH 8) was “strong signal”. For the same compound, the Kd [1, 6] was 2.8 µM and the “binding in solution (displacement of 1-NPN), in words” value [1] was “appreciable affinity”.

In the case of `CC(C)=CCC/C(C)=C/CO` [Geraniol, geraniol], the Kd [2, 7] is reported as 470 µM, the “sensor response (ΔIDS), in words” value ([2]; physiological pH / pH 8) is reported as “very weak responses” and the Kd [1] is reported as about 20 µM. The “binding in solution (displacement of 1-NPN), in words” value [1] was “poor binding”.

With `CC(=O)OCCC(C)C` [Isoamyl acetate, isoamyl acetate] the Kd [2, 5] was over 1000 µM, the “sensor response (ΔIDS), in words” value ([2]; physiological pH / pH 8) was “does not give a significant response” and the “sensor response (ΔIDS), in words” value ([2]; physiological pH / pH 8, listed as isoamyl acetate) was “very weak responses”. The Kd [1, 6] was about 20 µM and the “binding in solution (displacement of 1-NPN), in words” value [1] was “poor binding”.

With `C=CC(C)(O)CCC=C(C)C` (centres unmarked) [Linalool, linalool] the Kd [2, 5] was over 1000 µM, the “sensor response (ΔIDS), in words” value ([2]; physiological pH / pH 8) was “very weak responses” and the Kd [1, 6] was about 40 µM. The “binding in solution (displacement of 1-NPN), in words” value [1] was “poor binding”.
